Test results reported in patent US12180207B2 (ARRAY BIOPHARMA INC., priority 2018, dated 2024).

Experiments:
[1] = biological target: HEK-293 cells transfected with dox-inducible human wild type FGFR2 (Homo sapiens (Human), UniProt P21802); experiment: FGFR2 pFGFR cell assay (ELISA); assay type: cell-based; details: HEK-293 dox-inducible FGFR2, 1 hour compound, 30 ng/ml FGF-acidic
Experimental: FGFR2 pFGFR Cell Assay: • HEK-293 cells transfected with dox-inducible human wild type FGFR2 (SEQ ID NO: 3) were plated in a collagen or poly-D-lysine coated 96 well flat bottom plates at 4×10^5 cells/well in complete DMEM medium containing 10% FBS and 1 μg/ml doxycycline and allowed to attach for 24 h at 37° C., 5% CO2. Cells were treated with compound using 1:3 serial dilutions with a maximum final concentration of 5 μM. Compound was incubated on cells for 1 hour at 37° C., 5% CO2. Cells were then stimulated with a final concentration of 30 ng/ml human FGF-acidic (R&D Systems Cat number 232-FA/CF) for 5 minutes at 37° C., 5% CO2. Medium was removed and cells were lysed with lysis buffer containing phosphatase and protease inhibitors. Phospho FGFR2 was measured by ELISA (R&D Systems cat. no. DYC684). The ELISA captures total FGFR2 and detects total phospho tyrosine. Optical density was measured for each well using a Versamax reader at a wavelength of 450 nm. 100 POC was determined using no test compounds and 0 POC was determined using a control compound. The POC values were fit to a 4-parameter logistic curve as a function of the concentration of the compound, and the IC50 value is the point where the curve crosses 50 POC.

[2] = biological target: HEK-293 cells transfected with dox-inducible human wild type FGFR3 (Homo sapiens (Human), UniProt P22607); experiment: FGFR3 pFGFR cell assay (ELISA); assay type: cell-based; details: HEK-293 dox-inducible FGFR3, 1 hour compound, 100 ng/ml FGF-acidic
Sequence of HEK-293 cells transfected with dox-inducible human wild type FGFR3 (P22607 23-806): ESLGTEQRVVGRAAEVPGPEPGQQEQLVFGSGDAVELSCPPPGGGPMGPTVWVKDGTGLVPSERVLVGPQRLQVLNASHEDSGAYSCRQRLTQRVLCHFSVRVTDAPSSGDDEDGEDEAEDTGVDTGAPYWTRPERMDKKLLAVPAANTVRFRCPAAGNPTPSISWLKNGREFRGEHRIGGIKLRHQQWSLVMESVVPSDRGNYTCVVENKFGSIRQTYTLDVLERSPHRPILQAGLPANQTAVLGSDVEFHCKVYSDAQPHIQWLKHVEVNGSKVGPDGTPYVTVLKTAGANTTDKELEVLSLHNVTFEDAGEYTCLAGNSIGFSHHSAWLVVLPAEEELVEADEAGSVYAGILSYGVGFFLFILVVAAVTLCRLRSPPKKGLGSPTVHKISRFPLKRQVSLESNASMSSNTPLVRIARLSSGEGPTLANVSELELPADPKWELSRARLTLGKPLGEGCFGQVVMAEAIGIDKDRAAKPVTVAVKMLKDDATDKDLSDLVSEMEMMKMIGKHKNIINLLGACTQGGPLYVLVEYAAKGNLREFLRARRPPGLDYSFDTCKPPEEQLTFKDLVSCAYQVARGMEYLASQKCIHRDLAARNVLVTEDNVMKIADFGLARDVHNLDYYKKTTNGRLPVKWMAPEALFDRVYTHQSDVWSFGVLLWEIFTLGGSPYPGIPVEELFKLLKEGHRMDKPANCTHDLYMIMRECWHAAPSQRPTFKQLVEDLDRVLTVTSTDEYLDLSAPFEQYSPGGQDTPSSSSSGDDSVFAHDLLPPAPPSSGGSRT
Outline: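 Doxycycline-induced (1 μg/ml) HEK-293 cells expressing wild-type human FGFR3, treated 1 h with compound (1:3 series, top final 5 μM), then stimulated 5 min with 100 ng/ml FGF-acidic. Phospho-FGFR3 measured by ELISA (total FGFR3 capture, phosphotyrosine detection, OD 450 nm); IC50 from 4-parameter fit of POC values.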

Sequence of HEK-293 cells transfected with dox-inducible human wild type FGFR2 (P21802 22-821): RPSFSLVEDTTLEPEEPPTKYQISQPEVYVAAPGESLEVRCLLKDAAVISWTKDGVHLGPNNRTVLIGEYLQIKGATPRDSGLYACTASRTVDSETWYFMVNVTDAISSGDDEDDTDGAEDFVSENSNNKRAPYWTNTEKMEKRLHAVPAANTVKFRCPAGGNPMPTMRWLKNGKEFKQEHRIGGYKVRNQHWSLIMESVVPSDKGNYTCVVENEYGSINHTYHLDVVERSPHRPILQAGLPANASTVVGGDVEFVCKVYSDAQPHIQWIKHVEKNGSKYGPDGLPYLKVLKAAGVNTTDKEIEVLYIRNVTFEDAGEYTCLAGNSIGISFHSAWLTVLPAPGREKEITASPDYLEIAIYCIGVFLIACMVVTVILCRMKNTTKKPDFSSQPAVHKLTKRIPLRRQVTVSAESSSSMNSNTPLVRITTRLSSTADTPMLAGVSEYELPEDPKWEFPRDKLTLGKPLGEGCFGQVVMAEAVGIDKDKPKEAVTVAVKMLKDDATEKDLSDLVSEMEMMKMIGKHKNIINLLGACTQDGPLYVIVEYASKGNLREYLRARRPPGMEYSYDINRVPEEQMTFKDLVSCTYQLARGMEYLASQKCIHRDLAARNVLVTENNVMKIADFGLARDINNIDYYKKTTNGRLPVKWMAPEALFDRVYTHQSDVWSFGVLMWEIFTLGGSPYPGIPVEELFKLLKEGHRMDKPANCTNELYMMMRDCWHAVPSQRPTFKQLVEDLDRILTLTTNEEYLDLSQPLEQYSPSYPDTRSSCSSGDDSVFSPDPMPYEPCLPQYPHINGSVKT

Row | IC50 [1] | IC50 [2] | Structure (SMILES)
1 | 42 nM | 6 nM | C=CS(=O)(=O)N1CCC(C(=O)N2CCC(n3cc(-c4cc(OC)c5c(C#N)cnn5c4)cn3)CC2)CC1 [Example 186, 4-methoxy-6-(1-(1-(1-(vinylsulfonyl)piperi-dine-4-carbonyl)piperidin-4-yl)-1H-pyrazol-4-yl)pyrazolo[1,5-a]pyridine-3-carbonitrile]
2 | 37 nM | 28 nM | C=CC(=O)Nc1ccc(CN2CCC(n3cc(-c4cc(OC)c5c(C#N)cnn5c4)cn3)CC2)cc1 [Example 9, N-(4-((4-(4-(3-cyano-4-methoxypyrazolo[1,5-a]pyridin-6-yl)-1H-pyrazol-1-yl)piperidin-1-yl)methyl)phenyl)acrylamide]
3 | 348 nM | 43 nM | C=CC(=O)N1CC(C(=O)N2CCN(c3ccc(-c4cc(OC)c5c(C#N)cnn5c4)cn3)CC2)C1 [Example 111, 6-(6-(4-(1-acryloylazetidine-3-carbonyl)piperazin-1-yl)pyridin-3-yl)-4-methoxypyrazolo[1,5-a]pyridine-3-carbonitrile]
4 | 327 nM |  | COC/C=C/C(=O)N1CC(F)(C(=O)N2CCC(n3ncc(-c4cc(OC)c5c(C#N)cnn5c4)c3C)CC2)C1 [Example 154, (E)-6-(1-(1-(3-fluoro-1-(4-methoxybut-2-enoyl)azetidine-3-carbonyl)piperidin-4-yl)-5-methyl-1H-pyrazol-4-yl)-4-methoxypyrazolo [1,5-a]pyridine-3-carbonitrile]
5 | 36 nM | 38 nM | C=CC(=O)N(C)c1ccc(CN2CCC(n3cc(-c4cc(OC)c5c(C#N)cnn5c4)cn3)CC2)cc1 [Example 10, N-(4-((4-(4-(3-cyano-4-methoxypyrazolo[1,5-a]pyridin-6-yl)-1H-pyrazol-1-yl)piperidin-1-yl)methyl)phenyl)-N-methylacrylamide]
6 | 1200 nM |  | C=CC(=O)N1CC(C(=O)N2C[C@@H]3C[C@H]2CN3c2ccc(-c3cc(OC)c4c(C#N)cnn4c3)cn2)C1 [Example 106, 6-(6-((1S,4S)-5-(1-acryloylazetidine-3-carbonyl)-2,5-diazabicyclo[2.2.1]heptan-2-yl)pyridin-3-yl)-4-methoxypyrazolo[1,5-a]pyridine-3-carbonitrile]
7 | 1680 nM |  | COc1cc(-c2cnn(C3CCN(C(=O)C4CN(C(=O)C#CCO)C4)CC3)c2)cn2ncc(C#N)c12 [Example 179, 6-(1-(1-(1-(4-hydroxybut-2-ynoyl)azetidine-3-carbonyl)piperidin-4-yl)-1H-pyrazol-4-yl)-4-methoxypyrazolo[1,5-a]pyridine-3-carbonitrile]
8 | 1550 nM |  | COc1cc(-c2cnn(C3CCN(C(=O)C4(OC)CN(C(=O)/C=C/CN(C)C)C4)CC3)c2C)cn2ncc(C#N)c12 [Example 158, (E)-6-(1-(1-(1-(4-(dimethylamino)but-2-enoyl)-3-methoxyazetidine-3-carbonyl)piperidin-4-yl)-5-methyl-1H-pyrazol-4-yl)-4-methoxypyrazolo [1,5-a]pyridine-3-carbonitrile]
